Data on 45 compounds can be found in patent US9428456B2, “1-[m-carboxamido(hetero)aryl-methyl]-heterocyclyl-carboxamide derivatives” (Actelion Pharmaceuticals Ltd., priority 2012, dated 2016).

What is called EC50 is the concentration giving half of the maximal effect. Read a high EC50 as weaker potency.

Sequence of CXCR7 (P25106 whole entry): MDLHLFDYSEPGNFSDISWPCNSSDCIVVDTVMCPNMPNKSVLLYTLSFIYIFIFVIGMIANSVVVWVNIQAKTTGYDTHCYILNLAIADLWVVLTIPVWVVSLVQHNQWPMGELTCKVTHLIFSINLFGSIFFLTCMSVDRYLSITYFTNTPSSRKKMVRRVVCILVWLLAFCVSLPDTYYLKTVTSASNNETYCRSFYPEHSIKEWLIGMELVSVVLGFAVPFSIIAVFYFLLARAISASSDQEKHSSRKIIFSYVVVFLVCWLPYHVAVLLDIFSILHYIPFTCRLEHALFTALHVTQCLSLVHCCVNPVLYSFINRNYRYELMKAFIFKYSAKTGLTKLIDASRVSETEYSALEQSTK
Sequence of CXCR7 (P32121 whole entry partner): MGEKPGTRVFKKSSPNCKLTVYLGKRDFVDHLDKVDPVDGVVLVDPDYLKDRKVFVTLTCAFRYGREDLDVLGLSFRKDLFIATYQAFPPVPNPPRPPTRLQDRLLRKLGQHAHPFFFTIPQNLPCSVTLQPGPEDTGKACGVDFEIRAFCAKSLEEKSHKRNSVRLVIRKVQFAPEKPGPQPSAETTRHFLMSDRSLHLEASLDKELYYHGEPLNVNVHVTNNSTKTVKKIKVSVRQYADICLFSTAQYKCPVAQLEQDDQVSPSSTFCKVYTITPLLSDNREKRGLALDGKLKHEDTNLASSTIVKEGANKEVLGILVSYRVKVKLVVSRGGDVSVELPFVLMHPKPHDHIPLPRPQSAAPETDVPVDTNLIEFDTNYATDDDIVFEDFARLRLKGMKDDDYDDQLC

The test has as its target CXCR7 (Homo sapiens (Human), UniProt P25106). In words: PathHunter CHO-K1 CXCR7 b-arrestin assay (agonistic activity). It counts as cell-based. Particulars: PathHunter CHO-K1 CXCR7 b-arrestin cell line. The method, then:
The CXCl12 receptor and CXCR7 agonistic activities of the compounds of formula (I) are determined in accordance with the following experimental method.
The assay is using the PathHunter™ CHO-K1 CXCR7 b-arrestin cell line from DiscoverX. The system is based on the Enzyme Fragment Complementation Technology. Two complementing fragments of the b-galactosidase enzyme are expressed within stably transfected cells. The larger portion of b-gal, termed EA for Enzyme Acceptor, is fused to the C-terminus of b-arrestin 2. The smaller fragment, termed ProLink™ tag, is fused to CXCR7 at the C-terminus. Upon activation, b-arrestin is recruited which forces the interaction of ProLink and EA, allowing complementation of the two fragments of b-gal and the formation of a functional enzyme which is capable of hydrolysing the substrate and generating a chemiluminescent signal.
CHO-K1 CXCR7 b-arrestin cells are detached from culture dishes with a cell dissociation buffer (Invitrogen, #13151-014) and collected in growing medium (F12 HAMS 90% (v/v)/FCS 10% (v/v), Penicilin/streptomycin 1% (v/v)). 5000 cells per well (in 20 μl) are seeded in a 384 well plate (white-walled, clear bottom; BD Falcon #353274). The plate is incubated at 37° C./5% CO2 for 24 hours. Medium is then replaced by 20 μl OPTIMEM (Invitrogen #31985) for 3 to 4 hours. Test compounds are dissolved at 10 mM in DMSO and serially diluted in DMSO to 200× of the final concentration for dose response curves. Compounds are then diluted 1:33.3 in HBSS1×. 5 μl/well of HBSS1×/20 mM HEPES/0.2% BSA are added to the assay plate followed by addition of 5 μl/well of diluted compounds. CXCL12 (Peprotech #300-28A) may be used as a reference agonist. The plate is incubated for 90 minutes at 37° C. 12 μl of detection reagent (Path Hunter Detection Kit, DiscoveRx, #93-0001) is transferred to the assay plate and to the plate is incubated for 1 hour at room temperature. Luminescent signal is read in a microplate reader (FLUOstar Optima, bmg). The calculated EC50 values may fluctuate depending on the daily cellular assay performance. Fluctuations of this kind are known to those skilled in the art. Average EC50 values from several measurements are given as geometric mean values.
Compound “1-[3-(4-Chloro-benzoylamino)-benzyl]-piperidine-4-carboxylic acid (1-cyano-cyclopropyl)-amide [Example 2.036]” came in with an EC50 of 15 nM. “1-[3-(4-Chloro-benzoylamino)-benzyl]-piperidine-4-carboxylic acid (tetrahydro-pyran-4-yl)-amide [Example 2.013]” registered an EC50 of 13 nM. The EC50 values of the last two compounds are within 1.5-fold of each other.

“6-Trifluoromethyl-pyridine-2-carboxylic acid [3-(4-pentylcarbamoyl-piperidin-1-ylmethyl)-phenyl]-amide [Example 2.080]” had an EC50 of 15 nM. `O=C(NC1CCCCC1)C1CCN(Cc2cccc(NC(=O)C3CC3c3ccccc3)c2)CC1` (racemic) [Example 1.029] gave an EC50 of 5 nM.

For `CC(C)C(C(=O)Nc1cccc(CN2CCC(C(=O)NC3CCCCC3)CC2)c1)c1ccccc1` (racemic) [Example 1.036], the EC50 was determined as 35 nM.

On to `CC(C(=O)Nc1cccc(CN2CCC(C(=O)NC(C)(C)C)CC2)c1)c1ccccc1` (racemic) [Example 1.079], for which the EC50 turned out to be 3 nM. The compound `CC(c1cccc(NC(=O)c2ccc(Cl)cn2)c1)N1CCC(C(=O)NC2CCCCC2)CC1` (racemic) [Example 1.168] had a 50% effective concentration (EC50) of 2 nM. Turning to `CC(c1cccc(NC(=O)c2ccccn2)c1)N1CCC(C(=O)NC2CCCCC2)CC1` (racemic) [Example 1.169], the response was half-maximal at 12 nM (EC50). In turn, `CC(c1cccc(NC(=O)c2cnccn2)c1)N1CCC(C(=O)NC2CCCCC2)CC1` (racemic) [Example 1.170] displayed an EC50 of 18 nM.

For the compound `CC(c1cccc(NC(=O)c2cccnc2)c1)N1CCC(C(=O)NC2CCCCC2)CC1` (racemic) [Example 1.171], a half-maximal response (EC50) required 150 nM. To `Cc1cncc(C(=O)Nc2cccc(C(C)N3CCC(C(=O)NC4CCCCC4)CC3)c2)c1` (racemic) [Example 1.172] belongs 28 nM.

In turn, `CC(c1cccc(NC(=O)Cc2cccc(C(F)(F)F)c2)c1)N1CCC(C(=O)NC2CCCCC2)CC1` (racemic) [Example 1.173] showed an EC50 of 26 nM.

The compound `CC(c1cccc(NC(=O)c2ccncc2Cl)c1)N1CCC(C(=O)NC2CCCCC2)CC1` (racemic) [Example 1.174] yielded an EC50 of 559 nM.

Take `COc1ccc(OCC(=O)Nc2cccc(C(C)N3CCC(C(=O)NC4CCCCC4)CC3)c2)cc1` (racemic) [Example 1.175]: a half-maximal effect (EC50) was put at 181 nM.

On to `CC(c1cccc(NC(=O)c2ccncc2)c1)N1CCC(C(=O)NC2CCCCC2)CC1` (racemic) [Example 1.176], for which the midpoint of the response, the EC50, lay at 173 nM.

The compound `CC(c1cccc(NC(=O)c2ccc(C(F)(F)F)cc2)c1)N1CCC(C(=O)NC2CCCCC2)CC1` (racemic) [Example 1.177] had an EC50 of 37 nM. For the compound `CC(c1cccc(NC(=O)c2ccc(C#N)cc2)c1)N1CCC(C(=O)NC2CCCCC2)CC1` (racemic) [Example 1.178], the EC50 was 64 nM. This EC50 lies about 1.7-fold higher than the previous one. Compound `CC(c1cccc(NC(=O)c2cccc(C#N)c2)c1)N1CCC(C(=O)NC2CCCCC2)CC1` (racemic) [Example 1.179] yielded an EC50 of 78 nM. Take `CC(c1cccc(NC(=O)c2cc(Cl)ccn2)c1)N1CCC(C(=O)NC2CCCCC2)CC1` (racemic) [Example 1.180]: the response was half-maximal at 51 nM (EC50). Regarding `Cc1ccc(C(=O)Nc2cccc(C(C)N3CCC(C(=O)NC4CCCCC4)CC3)c2)cn1` (racemic) [Example 1.181], a half-maximal response (EC50) required 148 nM. `Cc1cccc(C(=O)Nc2cccc(C(C)N3CCC(C(=O)NC4CCCCC4)CC3)c2)n1` (racemic) [Example 1.182] had an EC50 of 7 nM. With `CC(c1cccc(NC(=O)c2ccc(C(F)(F)F)nc2)c1)N1CCC(C(=O)NC2CCCCC2)CC1` (racemic) [Example 1.183], a half-maximal effect (EC50) was put at 98 nM. `Cc1cc(C(=O)Nc2cccc(C(C)N3CCC(C(=O)NC4CCCCC4)CC3)c2)ccn1` (racemic) [Example 1.184] showed an EC50 of 33 nM.

`Cc1cnc(C(=O)Nc2cccc(C(C)N3CCC(C(=O)NC4CCCCC4)CC3)c2)cn1` (racemic) [Example 1.185]: the EC50 came to 15 nM. The compound `Cc1cc(C(=O)Nc2cccc(C(C)N3CCC(C(=O)NC4CCCCC4)CC3)c2)c2cnn(C(C)C)c2n1` (racemic) [Example 1.186] yielded an EC50 of 86 nM. `CC(c1cccc(NC(=O)c2cccc(C(F)(F)F)n2)c1)N1CCC(C(=O)NC2CCCCC2)CC1` (racemic) [Example 1.187] had a 50% effective concentration (EC50) of 7 nM. Against the preceding compound, the EC50 is about 12-fold lower. Turning to `CC(c1cccc(NC(=O)c2ccc(N3CCCC3)cn2)c1)N1CCC(C(=O)NC2CCCCC2)CC1` (racemic) [Example 1.188], the response was half-maximal at 215 nM (EC50). `CC(C)Cc1cc(C(=O)Nc2cccc(C(C)N3CCC(C(=O)NC4CCCCC4)CC3)c2)n(C)n1` (racemic) [Example 1.189] came in with an EC50 of 15 nM.

`CC(c1cccc(NC(=O)c2cnc3[nH]ccc3c2)c1)N1CCC(C(=O)NC2CCCCC2)CC1` (racemic) [Example 1.190] came in with an EC50 of 134 nM. `Cc1ccnc(C(=O)Nc2cccc(C(C)N3CCC(C(=O)NC4CCCCC4)CC3)c2)c1` (racemic) [Example 1.191]: a half-maximal response (EC50) required 64 nM.

Regarding `Cc1cc(C)nc(C(=O)Nc2cccc(C(C)N3CCC(C(=O)NC4CCCCC4)CC3)c2)c1` (racemic) [Example 1.192], the EC50 amounted to 102 nM.

In turn, `CC(c1cccc(NC(=O)c2ccncn2)c1)N1CCC(C(=O)NC2CCCCC2)CC1` (racemic) [Example 1.193] showed an EC50 of 23 nM. In turn, `CC(c1cccc(NC(=O)c2cnc(N3CCCC3)s2)c1)N1CCC(C(=O)NC2CCCCC2)CC1` (racemic) [Example 1.194] returned an EC50 of 303 nM.

For `CC(c1cccc(NC(=O)c2ncccn2)c1)N1CCC(C(=O)NC2CCCCC2)CC1` (racemic) [Example 1.195], the EC50 came to 176 nM.

Take `CCN(CC)c1ccc(C(=O)Nc2cccc(C(C)N3CCC(C(=O)NC4CCCCC4)CC3)c2)cn1` (racemic) [Example 1.196]: the EC50 worked out at 491 nM. As for `Cc1cc(C(=O)Nc2cccc(C(C)N3CCC(C(=O)NC4CCCCC4)CC3)c2)ncn1` (racemic) [Example 1.198], the figure is 92 nM. Take `CC(C)(C)NC(=O)C1CCN(Cc2cccc(NC(=O)C3CCOC3)c2)CC1` (racemic) [Example 1.256]: the response was half-maximal at 222 nM (EC50). Compared with the last compound, the EC50 is about 2.4-fold higher. `CC(C)(C)NC(=O)C1CCN(Cc2cccc(NC(=O)C3CC3(C)C)c2)CC1` (racemic) [Example 1.257] displayed an EC50 of 7 nM. `CC(C)(C)NC(=O)C1CCN(Cc2cccc(NC(=O)C3CNc4ccccc43)c2)CC1` (racemic) [Example 1.265]: the response was half-maximal at 15 nM (EC50). On to `CC(C)(C)NC(=O)C1CCN(Cc2cccc(NC(=O)C3COc4ccccc43)c2)CC1` (racemic) [Example 1.266], for which the EC50 was determined as 6 nM. As for `CC(C)(C)NC(=O)C1CCN(Cc2cccc(NC(=O)C3CCc4ccccc43)c2)CC1` (racemic) [Example 1.267], the figure is 2 nM; as for `CC(C)(C)NC(=O)C1CCN(Cc2cccc(NC(=O)C(O)c3ccccc3Cl)c2)CC1` (racemic) [Example 1.270], 6 nM; as for `CC(C)(C)NC(=O)C1CCN(Cc2cccc(NC(=O)C3Cc4ccccc43)c2)CC1` (racemic) [Example 1.271], 1 nM. Consider `CCNC(=O)C1CCCN(Cc2cccc(NC(=O)c3cncc(C)c3)c2)CC1` (racemic) [Example 1.287], for which the midpoint of the response, the EC50, lay at 181 nM. Compared with the last compound, the EC50 is about 180-fold higher. The compound `CCC(C)NC(=O)C1CCCN(Cc2cccc(NC(=O)c3cncc(C)c3)c2)CC1` (racemic) [Example 1.288] returned an EC50 of 33 nM.
